ChEMBL document CHEMBL3994622, “Design and synthesis of new RAF kinase-inhibiting antiproliferative quinoline derivatives. Part 2: Diarylurea derivatives” (Eur J Med Chem, 2017)

What was measured:
Format in all cases: functional
SK-MEL-28 = test: Growth inhibition of human SK-MEL-28 cells incubated for 48 hrs by sulforhodamine B assay; conditions: SK-MEL-28, 48 h
UACC-257 = test: Growth inhibition of human UACC257 cells incubated for 48 hrs by sulforhodamine B assay; conditions: UACC-257, 48 h
MOLT-4 [1] = test: Growth inhibition of human MOLT4 cells incubated for 48 hrs by sulforhodamine B assay; conditions: MOLT-4, 48 h
NCI-H460 = test: Growth inhibition of human NCI-H460 cells assessed as cell growth at 10 uM incubated for 48 hrs by sulforhodamine B assay relative to control; conditions: NCI-H460, 48 h, read-out: Activity
SR = test: Growth inhibition of human SR cells assessed as cell growth at 10 uM incubated for 48 hrs by sulforhodamine B assay relative to control; conditions: read-out: Activity
NCI-H226 = test: Growth inhibition of human NCI-H226 cells assessed as cell growth at 10 uM incubated for 48 hrs by sulforhodamine B assay relative to control; conditions: NCI-H226, 48 h, read-out: Activity
OVCAR-8 = test: Growth inhibition of human OVCAR8 cells incubated for 48 hrs by sulforhodamine B assay; conditions: OVCAR-8, 48 h
A549 = test: Growth inhibition of human A549/ATCC cells assessed as cell growth at 10 uM incubated for 48 hrs by sulforhodamine B assay relative to control; conditions: A549, 48 h, read-out: Activity
KM12 = test: Growth inhibition of human KM12 cells assessed as cell growth at 10 uM incubated for 48 hrs by sulforhodamine B assay relative to control; conditions: KM12, 48 h, read-out: Activity
SF-268 [2] = test: Growth inhibition of human SF268 cells assessed as cell growth at 10 uM incubated for 48 hrs by sulforhodamine B assay relative to control; conditions: SF-268, 48 h, read-out: Activity
OVCAR-5 = test: Growth inhibition of human OVCAR5 cells assessed as cell growth at 10 uM incubated for 48 hrs by sulforhodamine B assay relative to control; conditions: OVCAR-5, 48 h, read-out: Activity
HL-60(TB) = test: Growth inhibition of human HL-60(TB) cells assessed as cell growth at 10 uM incubated for 48 hrs by sulforhodamine B assay relative to control; conditions: HL-60, 48 h, read-out: Activity
SK-OV-3 = test: Growth inhibition of human SKOV3 cells assessed as cell growth at 10 uM incubated for 48 hrs by sulforhodamine B assay relative to control; conditions: SK-OV-3, 48 h, read-out: Activity
MDA-MB-468 = test: Growth inhibition of human MDA-MB-468 cells assessed as cell growth at 10 uM incubated for 48 hrs by sulforhodamine B assay relative to control; conditions: MDA-MB-468, 48 h, read-out: Activity
CCRF-CEM = test: Growth inhibition of human CCRF-CEM cells assessed as cell growth at 10 uM incubated for 48 hrs by sulforhodamine B assay relative to control; conditions: read-out: Activity
MOLT-4 [3] = test: Growth inhibition of human MOLT4 cells assessed as cell growth at 10 uM incubated for 48 hrs by sulforhodamine B assay relative to control; conditions: MOLT-4, 48 h, read-out: Activity
NCI-H23 = test: Growth inhibition of human NCI-H23 cells assessed as cell growth at 10 uM incubated for 48 hrs by sulforhodamine B assay relative to control; conditions: NCI-H23, 48 h, read-out: Activity
IGROV-1 [4] = test: Growth inhibition of human IGROV1 cells incubated for 48 hrs by sulforhodamine B assay; conditions: IGROV-1, 48 h
HCT-116 = test: Growth inhibition of human HCT116 cells assessed as cell growth at 10 uM incubated for 48 hrs by sulforhodamine B assay relative to control; conditions: HCT-116, 48 h, read-out: Activity
COLO 205 = test: Growth inhibition of human COLO205 cells incubated for 48 hrs by sulforhodamine B assay; conditions: COLO 205, 48 h
NCI-H522 = test: Growth inhibition of human NCI-H522 cells assessed as cell growth at 10 uM incubated for 48 hrs by sulforhodamine B assay relative to control; conditions: NCI-H522, 48 h, read-out: Activity
MDA-MB-231 = test: Growth inhibition of human MDA-MB-231 cells assessed as cell growth at 10 uM incubated for 48 hrs by sulforhodamine B assay relative to control; conditions: MDA-MB-231, 48 h, read-out: Activity
CAKI-1 = test: Growth inhibition of human Caki1 cells assessed as cell growth at 10 uM incubated for 48 hrs by sulforhodamine B assay relative to control; conditions: CAKI-1, 48 h, read-out: Activity
SF-268 [5] = test: Growth inhibition of human SF268 cells incubated for 48 hrs by sulforhodamine B assay; conditions: SF-268, 48 h
A498 = test: Growth inhibition of human A498 cells assessed as cell growth at 10 uM incubated for 48 hrs by sulforhodamine B assay relative to control; conditions: A498, 48 h, read-out: Activity
SNB-19 = test: Growth inhibition of human SNB19 cells assessed as cell growth at 10 uM incubated for 48 hrs by sulforhodamine B assay relative to control; conditions: SNB-19, 48 h, read-out: Activity
IGROV-1 [6] = test: Growth inhibition of human IGROV1 cells assessed as cell growth at 10 uM incubated for 48 hrs by sulforhodamine B assay relative to control; conditions: IGROV-1, 48 h, read-out: Activity
Hs-578T = test: Growth inhibition of human Hs 578T cells assessed as cell growth at 10 uM incubated for 48 hrs by sulforhodamine B assay relative to control; conditions: read-out: Activity
UACC-62 = test: Growth inhibition of human UACC62 cells assessed as cell growth at 10 uM incubated for 48 hrs by sulforhodamine B assay relative to control; conditions: UACC-62, 48 h, read-out: Activity
M14 = test: Growth inhibition of human M14 cells assessed as cell growth at 10 uM incubated for 48 hrs by sulforhodamine B assay relative to control; conditions: M14, 48 h, read-out: Activity
ACHN = test: Growth inhibition of human ACHN cells assessed as cell growth at 10 uM incubated for 48 hrs by sulforhodamine B assay relative to control; conditions: read-out: Activity
NCI-H322M = test: Growth inhibition of human NCI-H322M cells incubated for 48 hrs by sulforhodamine B assay
SN12C = test: Growth inhibition of human SN12C cells assessed as cell growth at 10 uM incubated for 48 hrs by sulforhodamine B assay relative to control; conditions: read-out: Activity
[7] = read-out: LC50 (the source's name)

Compound: COc1cc2cc(Oc3ccc(NC(=O)Nc4ccc(Cl)c(Cl)c4)cc3)c(C)nc2cc1OC
- GI50 (SK-MEL-28): 3.77 µM
- TGI (SK-MEL-28): 14.7 µM
- CC50 (SK-MEL-28; [7]): 51.2 µM
- GI50 (UACC-257): 2.31 µM
- TGI (UACC-257): 6.28 µM
- CC50 (UACC-257; [7]): 24.4 µM
- GI50 (MOLT-4 [1]): 3.02 µM
- LC50 (MOLT-4 [1]): > 100 µM
- TGI (MOLT-4 [1]): 22.8 µM
- growth at 10 µM (NCI-H460): 3.68%
- growth at 10 µM (SR): 18%
- growth at 10 µM (NCI-H226): 7.74%
- GI50 (OVCAR-8): 3.54 µM
- TGI (OVCAR-8): 12.9 µM
- CC50 (OVCAR-8; [7]): 36 µM
- growth at 10 µM (A549): 4.35%
- growth at 10 µM (KM12): 13.9%
- growth at 10 µM (SF-268 [2]): 43.7%
- growth at 10 µM (OVCAR-5): 53%
- growth at 10 µM (HL-60(TB)): 9.64%
- growth at 10 µM (SK-OV-3): 28.6%
- growth at 10 µM (MDA-MB-468): -16.7%
- growth at 10 µM (CCRF-CEM): 13.3%
- growth at 10 µM (MOLT-4 [3]): 3.69%
- growth at 10 µM (NCI-H23): 8.26%
- GI50 (IGROV-1 [4]): 5.61 µM
- TGI (IGROV-1 [4]): 46.1 µM
- CC50 (IGROV-1 [4]; [7]): > 100 µM
- growth at 10 µM (HCT-116): 10.5%
- GI50 (COLO 205): 2.75 µM
- TGI (COLO 205): 6.5 µM
- CC50 (COLO 205; [7]): 21.5 µM
- growth at 10 µM (NCI-H522): -13.8%
- growth at 10 µM (MDA-MB-231): 47.8%
- growth at 10 µM (CAKI-1): 21.8%
- GI50 (SF-268 [5]): 8.23 µM
- LC50 (50% lethal concentration) (SF-268 [5]): > 100 µM
- TGI (SF-268 [5]): > 100 µM
- growth at 10 µM (A498): 35.8%
- growth at 10 µM (SNB-19): 28.6%
- growth at 10 µM (IGROV-1 [6]): 18.6%
- growth at 10 µM (Hs-578T): 45.1%
- growth at 10 µM (UACC-62): 20.4%
- growth at 10 µM (M14): 25.8%
- growth at 10 µM (ACHN): 16.4%
- GI50 (NCI-H322M): 8.66 µM
- TGI (NCI-H322M): 60.3 µM
- CC50 (NCI-H322M; [7]): > 100 µM
- growth at 10 µM (SN12C): 22.1%
